# Assay results reported in BindingDB's records for patent US10227350 (Gilead Sciences, 2019).
# Biological target: Phosphatidylinositol 4,5-bisphosphate 3-kinase catalytic subunit beta isoform (Homo sapiens, UniProt P42338)
# Assay: TR-FRET Assay
# Experimental: Class I PI3K isoforms were expressed and purified as heterodimeric recombinant proteins. All assay reagents and buffers for the TR-FRET assay were purchased from Millipore. […] The compounds were added to the assay solution and incubated for 30 minutes at 25° C.
# Chain of Phosphatidylinositol 4,5-bisphosphate 3-kinase catalytic subunit beta isoform (P42338 whole entry, canonical isoform): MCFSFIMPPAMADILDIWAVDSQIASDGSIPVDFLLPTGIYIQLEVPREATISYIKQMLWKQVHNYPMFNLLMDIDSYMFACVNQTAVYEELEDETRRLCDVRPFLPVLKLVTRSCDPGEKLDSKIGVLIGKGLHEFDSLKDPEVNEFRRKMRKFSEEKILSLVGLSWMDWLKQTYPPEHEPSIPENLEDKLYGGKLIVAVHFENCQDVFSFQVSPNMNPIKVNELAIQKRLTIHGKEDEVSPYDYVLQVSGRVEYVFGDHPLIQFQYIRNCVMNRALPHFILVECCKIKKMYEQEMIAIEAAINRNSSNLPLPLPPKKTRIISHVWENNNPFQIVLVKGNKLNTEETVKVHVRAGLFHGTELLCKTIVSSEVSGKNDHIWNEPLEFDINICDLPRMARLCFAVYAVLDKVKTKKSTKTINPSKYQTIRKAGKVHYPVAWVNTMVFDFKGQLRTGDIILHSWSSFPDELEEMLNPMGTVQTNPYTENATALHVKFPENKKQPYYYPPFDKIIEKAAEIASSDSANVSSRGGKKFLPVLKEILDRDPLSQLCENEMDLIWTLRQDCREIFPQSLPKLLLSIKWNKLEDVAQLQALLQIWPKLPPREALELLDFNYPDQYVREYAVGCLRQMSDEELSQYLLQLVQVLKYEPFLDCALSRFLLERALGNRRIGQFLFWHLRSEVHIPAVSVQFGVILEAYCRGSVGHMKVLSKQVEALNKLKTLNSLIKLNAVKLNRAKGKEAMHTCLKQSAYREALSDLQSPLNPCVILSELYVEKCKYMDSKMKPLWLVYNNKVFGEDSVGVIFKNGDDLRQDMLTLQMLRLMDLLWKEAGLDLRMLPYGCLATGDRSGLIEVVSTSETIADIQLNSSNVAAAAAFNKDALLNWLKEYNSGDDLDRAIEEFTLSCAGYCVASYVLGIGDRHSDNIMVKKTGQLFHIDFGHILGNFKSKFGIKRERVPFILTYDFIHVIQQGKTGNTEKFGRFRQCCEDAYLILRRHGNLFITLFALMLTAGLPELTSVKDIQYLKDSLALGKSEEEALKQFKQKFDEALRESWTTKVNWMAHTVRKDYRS
row,IC50 [nM],Compound
1,5,"Cc1cc(-c2cc(-c3nnc[nH]3)c3nc(C)n(-c4ccnc5c(Cl)cccc45)c3c2)ccn1 [US10227350, Compound 40]"
2,4,"CCCc1nc2c(-c3nnc[nH]3)cc(-c3ccnc(N)c3F)cc2n1-c1ccnc2c(Cl)ccc(F)c12 [US10227350, Compound 84]"
